# Measured values published in PMC3459904, “Inhibition of HIV-1 Infection by Human α-Defensin-5, a Natural Antimicrobial Peptide Expressed in the Genital and Intestinal Mucosae” (PLoS ONE, 2012).
# Where two headings read alike, the source gives them in different places. Where a SMILES comes first, the peptide text is derived from it. Bridges are numbered along the chain shown (N, C = ends).
# Assays:
# [1] = tested on: primary isolate HIV-1J176 in purified CD4+ T lymphocytes
# Method: Viral stocks were titrated on activated human CD4^+ T cells.
# PBMCs were isolated from healthy blood donors by standard Ficoll-HyPaque (Pharmacia, Uppsala, Sweden) density gradient centrifugation from concentrated leukocytes of healthy blood donors and stimulated with 5 µg/ml PHA (Sigma, St. Louis, MO) in complete RPMI medium supplemented with 10% FBS and 50 U/ml recombinant IL-2 (Proleukin; Chiron Corporation, Emeryville, CA) (RPMI-10). After 3 days in culture, CD4^+ T cell population was enriched by negative immunomagnetic selection using Dynabeads M-450 (Invitrogen Carlsbad, CA) coated with monoclonal antibodies to CD8, CD14, CD19 and CD56 (Sigma, St. Louis, MO) according to the manufacturer’s protocol. Infection was carried out by spinoculation for 1.5 hours as previously described [32] with minor modifications. […]
# The HIV-1 p24 Ag concentrations in the culture supernatants were determined by enzyme-linked immunosorbent assay (ELISA) at days 4 and 6 post-infection as previously described [68]. […] Bound p24 Ag was then detected using an alkaline phosphatase–conjugated anti-p24 monoclonal antibody (BC 1071-AP; Aalto Bio Reagents) and the AMPAK ELISA amplification system (DAKO A/S, Glostrup, Denmark).
# [2] = target: recombinant soluble CD4 (sCD4) (Homo sapiens, UniProt P01730); assay: biochemical
# Method: (§1) Flat-bottom, 96-well MaxiSorp plates (NUNC, Roskilde, Denmark) were coated with recombinant sCD4 (5 µg/well) or HIV-1BaL gp120 (2 µg/well) in phosphate-buffered saline (PBS) for 18 hrs at 4°C. Bovine serum albumin (BSA) 3% was used for blocking the plates. Antibodies were added in 100 µl PBS+0.05%BSA and incubated for 1 hr at 37°C, after which the plate was washed and incubated for an additional hour at room temperature with the secondary antibody. Peroxidase-conjugated, affinity-purified goat-anti-mouse IgG or goat-anti-human IgG (Dako, Glostrup, Denmark) were used as secondary antibodies. […] The specific signal was calculated by subtracting background values obtained from replicate wells containing all the reagents except the specific ligand for each assay. Binding of mAbs 17b and 48d, directed to CD4-induced epitopes, was performed after preincubation of immobilized gp120 with sCD4 (2 µg/well) in PBS for 20 min at 37°C [65].
# HIV-1 envelope = settings: envelope not stated
# gp120/CD4 = gp120/CD4 (Homo sapiens, UniProt P01730); assay: biochemical
# Method: as §1
# X4 HIV-1 envelopes = settings: read-out: mean IC50, envelope-mediated fusion, PM1 effector cells, NIH-3T3 CD4/CXCR4 target cells, 2 h at 37°C, medium without FCS, β-galactosidase, 3 experiments
# SHIV = settings: macaques; ref [61]; cited from earlier work
# Excerpt: Moreover, HD5 may share the mechanism of action of cyanovirin-N, a lectin-like protein that binds to mannose moieties in gp120 and of mAb IgG1b12, with which it competes for the same binding site on CD4 receptor. Both of these virus-targeting entry-inhibitors have been reported to protect macaques from vaginal SHIV ...
# [3] = target: recombinant HIV-1 gp120 from isolate BaL (HIV-1 isolate BaL); assay: ELISA; competition: increasing HD5 against the binding of sCD4 and gp120; the text has gp120 on plastic and sCD4 in solution, the legend has sCD4 coated at 5 µg/mL and gp120BaL in solution; HD5 added first and kept in the wells
# [4] = target: recombinant HIV-1 gp120 from isolate SF162 (HIV-1 isolate SF162); assay: ELISA; competition: increasing HD5 against mAb IgG1b12 (5 µg/mL) for binding to plastic-immobilised recombinant gp120; PBS + 0.05% BSA, 1 hr at 37°C
# [5] = target: recombinant human soluble CD4 (human); assay: ELISA; competition: increasing HD5 against anti-CD4 mAb (Leu3a; OKT4) for binding to plastic-immobilised sCD4 (coated at 5 µg/mL); HD5 added before the mAb and kept in the wells
molecule,measurement,setting,value
"CC[C@H](C)[C@@H]1NC(=O)[C@H](CCC(=O)O)NC(=O)[C@@H]2CSSC[C@@H]3NC(=O)[C@H](Cc4ccc(O)cc4)NC(=O)[C@@H](NC(=O)[C@@H](NC(=O)[C@H](C)N)[C@@H](C)O)CSSC[C@@H](C(=O)N[C@@H](CCCNC(=N)N)C(=O)O)NC(=O)[C@H](CSSC[C@H](NC(=O)[C@H](CCCNC(=N)N)NC(=O)CNC(=O)[C@H]([C@@H](C)O)NC(=O)[C@H](CCCNC(=N)N)NC3=O)C(=O)N[C@@H](C)C(=O)N[C@@H]([C@@H](C)O)C(=O)N[C@@H](CCCNC(=N)N)C(=O)N[C@@H](CCC(=O)O)C(=O)N[C@@H](CO)C(=O)N[C@@H](CC(C)C)C(=O)N[C@@H](CO)C(=O)NCC(=O)N[C@@H](C(C)C)C(=O)N2)NC(=O)[C@H](CC(C)C)NC(=O)[C@H](CCCNC(=N)N)NC(=O)[C@H](Cc2ccc(O)cc2)NC(=O)[C@H](CC(C)C)NC(=O)[C@H](CCCNC(=N)N)NC(=O)CNC(=O)[C@H](CO)NC1=O [HD5] (H-ATCYCRTGRCATRESLSGVCEISGRLYRLCCR-OH; disulfide 3-31, 5-20, 10-30)",IC50,"[1]; primary isolate 1J176 in purified CD4+ T lymphocytes, 1 h",60 nM
same,IC50,"[1]; read-out: half-maximal inhibitory concentration (IC50), HIV-1 replication, HIV-1J176, no serum (RPMI-0.3-ITS: 0.3% human AB serum, ITS, rIL-2 50 U/ml), virions pre-incubated with HD5 1 h at 37°C, spinoculation 1.5 h, p24 ELISA day 6, mean of 3 experiments in triplicate",400 nM
same,IC50,[2],1800 nM
same,IC50,"HIV-1 envelope; read-out: IC50, fusion with FBS, with FBS (2.5% vol/vol)",56000 nM
same,IC50,"HIV-1 envelope; read-out: IC50, fusion without FBS, without FBS",2300 nM
same,IC50,gp120/CD4,900 nM
same,IC50,X4 HIV-1 envelopes,2770 ± 380 nM
cyanovirin-N,protection from vaginal SHIV-challenge,SHIV,protect macaques from vaginal SHIV-challenge
ATCYCRTGRCATRESLSGVCEISGRLYRLCCR [human α-defensin-5],IC50,[3],900 nM
same,IC50,[4],6500 nM
same,IC50,[5],1800 nM
